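48-hour exposure; five concentrations; linearly interpolated endpoints. Here, GI50 denotes the concentration required for 50% inhibition of growth.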 Calls of active or inactive are those of the source. No stated cut-off is given here; in the data, active = GI50 up to about 1.1 µM and inactive = higher.
What was measured:
Assay in all cases: NCI-60 cell line screen, 48 h
[1] = system: 786-0
[2] = system: A498
[3] = system: ACHN
[4] = system: BT-549
[5] = system: CAKI-1
[6] = system: CCRF-CEM
[7] = system: COLO 205
[8] = system: DU-145
[9] = system: EKVX
[10] = system: HCC 2998
[11] = system: HCT-116
[12] = system: HCT-15
[13] = system: HL-60
[14] = system: HOP-62
[15] = system: HOP-92
[16] = system: HT-29
[17] = system: Hs-578T
[18] = system: IGROV-1
[19] = system: K562
[20] = system: KM12
[21] = system: LOX IMVI
[22] = system: MCF7
[23] = system: MDA-MB-231
[24] = system: MDA-MB-435
[25] = system: MDA-N
[26] = system: MOLT-4
[27] = system: Malme-3M
[28] = system: NCI-H226
[29] = system: NCI-H23
[30] = system: NCI-H460
[31] = system: NCI-H522
[32] = system: NCI/ADR-RES
[33] = system: OVCAR-3
[34] = system: OVCAR-4
[35] = system: OVCAR-5
[36] = system: OVCAR-8
[37] = system: PC-3
[38] = system: RPMI-8226
[39] = system: RXF 393
[40] = system: SF-268
[41] = system: SF-295
[42] = system: SF-539
[43] = system: SK-MEL-28
[44] = system: SK-MEL-2
[45] = system: SK-MEL-5
[46] = system: SK-OV-3
[47] = system: SN12C
[48] = system: SNB-75
[49] = system: SR
[50] = system: SW-620
[51] = system: T47D
[52] = system: TK-10
[53] = system: UACC-257
[54] = system: UACC-62
[55] = system: A549
[56] = system: M14
[57] = system: SNB-19
[58] = system: U-251
[59] = system: UO-31

In the case of `CCOc1cc(NC(C)=O)ccc1C(=O)NN1C(=O)C(Oc2ccccc2)C1c1ccccc1` (configuration not stated), the GI50 [1] is reported as > 100 µM (inactive), the GI50 [2] is reported as 45.4 µM (inactive) and the GI50 [3] is reported as 26.5 µM (inactive). For the same compound, the GI50 [4] was > 100 µM (inactive), the GI50 [5] was 52.4 µM (inactive) and the GI50 [6] was 28.6 µM (inactive). For the same compound, the GI50 [7] was 71.9 µM (inactive), the GI50 [8] was > 100 µM (inactive) and the GI50 [9] was > 100 µM (inactive). For the same compound, the GI50 [10] was > 100 µM (inactive), the GI50 [11] was 94.4 µM (inactive) and the GI50 [12] was > 100 µM. The GI50 [13] was 25.9 µM (inactive), the GI50 [14] was > 100 µM (inactive) and the GI50 [15] was > 100 µM (inactive). For the same compound, the GI50 [16] was > 100 µM (inactive), the GI50 [17] was > 100 µM (inactive) and the GI50 [18] was > 100 µM (inactive). The GI50 [19] was 49.5 µM (inactive), the GI50 [20] was > 100 µM (inactive) and the GI50 [21] was 85.3 µM (inactive). For the same compound, the GI50 [22] was 15.1 µM (inactive), the GI50 [23] was > 100 µM (inactive) and the GI50 [24] was > 100 µM (inactive). For the same compound, the GI50 [25] was > 100 µM (inactive), the GI50 [26] was 1.77 µM (inactive) and the GI50 [27] was 52.5 µM (inactive). For the same compound, the GI50 [28] was 57.8 µM (inactive), the GI50 [29] was > 100 µM (inactive) and the GI50 [30] was 15.3 µM (inactive). For the same compound, the GI50 [31] was > 100 µM (inactive), the GI50 [32] was > 100 µM (inactive) and the GI50 [33] was > 100 µM (inactive). The GI50 [34] was > 100 µM (inactive), the GI50 [35] was > 100 µM (inactive) and the GI50 [36] was > 100 µM (inactive). For the same compound, the GI50 [37] was > 100 µM (inactive), the GI50 [38] was 35.9 µM (inactive) and the GI50 [39] was 70.5 µM (inactive). The GI50 [40] was > 100 µM (inactive), the GI50 [41] was 57.8 µM (inactive) and the GI50 [42] was 78 µM (inactive). For the same compound, the GI50 [43] was > 100 µM (inactive), the GI50 [44] was > 100 µM (inactive) and the GI50 [45] was 42.8 µM (inactive). For the same compound, the GI50 [46] was > 100 µM (inactive), the GI50 [47] was > 100 µM (inactive) and the GI50 [48] was 92.3 µM (inactive). The GI50 [49] was 4.15 µM (inactive), the GI50 [50] was > 100 µM (inactive) and the GI50 [51] was 44.4 µM (inactive). The GI50 [52] was > 100 µM (inactive), the GI50 [53] was > 100 µM (inactive) and the GI50 [54] was 45 µM (inactive).
With `O=C(Cn1nc(Br)c(Br)c1Br)c1ccccc1` the GI50 [1] was 23.7 µM (inactive), the GI50 [2] was 35 µM (inactive) and the GI50 [55] was 33.7 µM (inactive). The GI50 [3] was 27.3 µM (inactive), the GI50 [4] was 20.2 µM (inactive) and the GI50 [5] was 26.7 µM (inactive). For the same compound, the GI50 [6] was 5.97 µM (inactive), the GI50 [7] was 18.9 µM (inactive) and the GI50 [8] was 38.5 µM (inactive). The GI50 [9] was 22.5 µM (inactive), the GI50 [10] was 36.6 µM (inactive) and the GI50 [11] was 18.1 µM (inactive). The GI50 [12] was 31.6 µM, the GI50 [13] was 10.9 µM (inactive) and the GI50 [14] was 37.2 µM (inactive). For the same compound, the GI50 [15] was 20 µM (inactive), the GI50 [16] was 22.2 µM (inactive) and the GI50 [17] was 44.1 µM (inactive). For the same compound, the GI50 [18] was 27.7 µM (inactive), the GI50 [19] was 10.8 µM (inactive) and the GI50 [20] was 33.4 µM (inactive). For the same compound, the GI50 [21] was 16.4 µM (inactive), the GI50 [56] was 26.7 µM (inactive) and the GI50 [22] was 36.2 µM (inactive). For the same compound, the GI50 [23] was 18.9 µM (inactive), the GI50 [24] was 31 µM (inactive) and the GI50 [25] was 32.9 µM (inactive). The GI50 [26] was 0.238 µM (active), the GI50 [27] was 22 µM (inactive) and the GI50 [28] was 11.8 µM (inactive). For the same compound, the GI50 [29] was 24.8 µM (inactive), the GI50 [30] was 23.8 µM (inactive) and the GI50 [31] was 26 µM (inactive). For the same compound, the GI50 [32] was 30.1 µM (inactive), the GI50 [33] was 34.1 µM (inactive) and the GI50 [34] was 36.1 µM (inactive). For the same compound, the GI50 [35] was 40.7 µM (inactive), the GI50 [36] was 34.5 µM (inactive) and the GI50 [37] was 32.7 µM (inactive). For the same compound, the GI50 [39] was 13.6 µM (inactive), the GI50 [40] was 51.3 µM (inactive) and the GI50 [41] was 29.1 µM (inactive). For the same compound, the GI50 [42] was 18.2 µM (inactive), the GI50 [43] was 37.2 µM (inactive) and the GI50 [44] was 20.7 µM (inactive). The GI50 [45] was 18.1 µM (inactive), the GI50 [46] was 32.5 µM (inactive) and the GI50 [47] was 65.6 µM (inactive). For the same compound, the GI50 [57] was 39.3 µM (inactive), the GI50 [48] was 23.2 µM (inactive) and the GI50 [49] was 0.152 µM (active). For the same compound, the GI50 [50] was 34 µM (inactive), the GI50 [51] was 24.5 µM (inactive) and the GI50 [52] was 13.7 µM (inactive). The GI50 [58] was 34 µM (inactive), the GI50 [53] was 20 µM (inactive) and the GI50 [54] was 20 µM (inactive). For the same compound, the GI50 [59] was 18.2 µM (inactive).

Source: ChEMBL document CHEMBL1201862, “PubChem BioAssay data set” (2004)
